Results as given in patent US20090226500A1, “SUTURES AND ANTI-SCARRING AGENTS” (Angiotech Pharmaceuticals, Inc, priority 2006, published 2009).
pIC50: −log10 of the molar value.

Legend:
human fibroblasts = experiment: Cell proliferation of fibroblasts; type: cell-based; conditions: Fibroblast, 72 hours, CYQUANT, read-out: IC50 cell proliferation of fibroblasts
Outline: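 Human fibroblasts plated at 600 cells/well, attached overnight, then exposed to drug in triplicate for 72 h at 37°C. Cell content read with CYQUANT GR dye in lysis buffer after 3-5 min at room temperature.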

[1] = system: MCP-1 production by THP-1 cells; experiment: MCP-1 production by macrophages; type: cell-based, human; conditions: Homo sapiens; THP-1 cells stimulated with opsonized zymosan, 24 hours; read-out: IC50 MCP-1 production
Outline: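 THP-1 cells (1×10^6/well, 10% FCS) stimulated with 1 mg/ml serum-opsonized zymosan plus compound added from DMSO stocks at 1/1000, 24 h at 37° C. MCP-1 in supernatants quantified by sandwich ELISA (TMB read-out) against a recombinant human MCP-1 standard curve, triplicates, background-subtracted.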

Row | SMILES | pIC50 (human fibroblasts) | pIC50 [1]
1 | CC1=C(O)C(=O)C=C2C1=CC=C1[C@@]2(C)CC[C@@]2(C)[C@@H]3C[C@](C)(C(=O)O)CC[C@]3(C)CC[C@]12C [celastrol] | 6.22 to 7.00 | 6.38
2 | COc1c(C)c2c(c(O)c1C/C=C(\C)CCC(=O)O)C(=O)OC2 [mycophenolic acid] | 6.22 to 7.00 | 6.12
